Measurements as given in patent US20140155341A1, “USE OF SS'-DIMETHYL-GLIOTOXIN AS […] OF P[…] BY GLIOTOXIN-PRODUCING FUNGI OR THEIR DERIVATIVES” (priority 2011, published 2014).

Columns and labels:
blood cells = experiment: Recovery of GT and bmGT from human whole blood (influence of blood cells); format: in vitro ADME; conditions: for lost in the blood cells: added to total blood, plasma levels analysed after 10 minutes
Protocol: (§1) […] Later, the blood was centrifuged at 2000 revolutions per minute (rpm) during 15 minutes, the serum was recovered and GT and bmGT were extracted and analysed as described above.
(§2) The samples were separated using a horizontal developing chamber (Camag) by facing the plates downwards. n-heptane (C7), MeOH, tetrahydrofuran (THF) and acetonitrile (ACN) (HPLC grade, Scharlau, Barcelona, Spain) were used as solvents. The separation and quantification of GT and bmGT was performed with a mixture of THF:C7:ACN (40:58:2) (v:v:v) during 3 min.
(§3) Detection and quantification by UV spectroscopy, a TLC3 scanner was used (Camag) in UV mode whereby a UV scanning densitometry was carried out to determine GT and bmGT (wavelength (λ)=280 and 367 nm). A linear scan with a beam of 4 mm×0.2 mm was used in both cases. The area under the peaks was quantified and saved using Camag's software.
(§4) In parallel, the influence of the presence of blood cells on the recovery of GT and bmGT was analysed. Unlike the serum and plasma, less than 10% of GT was recovered from the whole blood, even when large quantities of GT (20 ug) were added (Table 1). […] The precision of this determination was as high as in the serum or plasma with RSD values of between 9-16%. Aliquots of blood and plasma from the same unit of blood were used simultaneously to perform these determinations, therefore, the only, but crucial, difference between both fluids is the presence of red and white cells in the blood.

[1] = as above; format: in vitro ADME; conditions: whole blood, human blood, blood centrifuged before extraction to eliminate cellular fraction; for recovery at 30 min, 5 µg/mL: 5 μg added to 1 ml; for recovery at 30 min, 20 µg/mL: 20 μg added to 1 ml
Protocol: as §1, §2, §3, §4

[2] = disulfide bond blocked by methylation; cited from earlier work

Structure (SMILES) | lost in the blood cells (blood cells) | recovered from the whole blood (blood cells; whole blood, even when large quantities (20 ug) were added) | recovery at 30 min, 5 µg/mL [1] [%] | recovery at 30 min, 20 µg/mL [1] [%] | biological activity [2]
CN1C(=O)[C@]23CC4=CC=C[C@H](O)[C@H]4N2C(=O)[C@@]1(CO)SS3 [GT, Gliotoxin] | 90% | less than 10% | 8.44 | 6.56 | –
CS[C@]1(CO)C(=O)N2C3C(=CC=C[C@@H]3O)C[C@@]2(SC)C(=O)N1C (some centres unmarked) [bmGT] | 10-15% | – | 73.2 | 87.2 | biologically inactive
